In publication PMC10029296, “Glepaglutide, a novel glucagon-like peptide-2 agonist, has anti-inflammatory and mucosal regenerative effects in an experimental model of inflammatory bowel disease in rats” (BMC Gastroenterology, 2023):
No end group written: not given here.

What was measured:
male Wistar rats [1] = test: INDO-induced small intestinal inflammation model validation study (INDO dose finding); details: data not shown
male Wistar rats [2] = details: rat, in vivo
Procedure: In this study, a dose of INDO 7 mg/kg was used based on the results of an INDO-induced small intestinal inflammation model validation study conducted by Zealand Pharma.

[3] = test system: Wistar rats with INDO-induced small intestinal inflammation; test: INDO-induced small intestinal inflammation model, co- and post-treatment; type: in vivo, rat; details: 400 nmol/kg SC twice daily
Procedure: Two treatment regimens were studied: glepaglutide (400 nmol/kg, SC, twice daily) was administered in a co-treatment regimen (Fig. 1B – administered at inflammation onset and throughout), and a post-treatment regimen (Fig. 1C – administered after inflammation onset and throughout).
Two groups of controls, INDO controls (administered with INDO and treated with vehicle) and controls (administered with saline solution and treated with vehicle), were included in the studies (Fig. 1B and C). Groups of rats (n = 7–15) were sacrificed during the active inflammation phase (2–3 days after inflammation onset), on day 3 for the co-treatment regimen (Fig. 1B) and on day 4 for the post-treatment regimen (Fig. 1C), to determine small intestinal length, jejunal and ileal mass, and α-1-acid glycoprotein (α-1-AGP) and myeloperoxidase (MPO) concentrations in the jejunum and ileum. Equivalent groups of rats were sacrificed during the body weight recovery phase (14–15 days after inflammation onset), on day 14 for the co-treatment regimen (Fig. 1B), and on day 16 for the post-treatment regimen (Fig. 1C), to determine jejunal and ileal mass. Body weight and survival were recorded daily.
(§1) Animals were anesthetized with carbon dioxide and then sacrificed by cervical dislocation. The small intestine (from the pylorus to the ileocecal junction) was dissected away from the abdomen and the surrounding mesenteric fat. Small intestinal length was measured after weighing the small intestine with a 1 g weight to obtain uniform tension. Thereafter, the small intestine was divided into two segments of equal length labeled as the jejunum and ileum. Segments were gently flushed with 0.9% saline, padded dry, and weighed. A 5 cm biopsy was collected 10 cm distal from the start of the jejunal segment, and another 5 cm biopsy was collected 10 cm distal from the start of the ileal segment. The biopsies were immediately frozen in liquid nitrogen and stored at -80 °C for later analysis of concentrations of α-1-AGP and MPO using commercially available enzyme-linked immunosorbent assay kits (Life Diagnostics [2510–2] and Hycult Biotech [HK 210], respectively). The preparation method was validated in house.
Data are presented as mean ± standard error of the mean, unless otherwise stated. The intestinal growth-promoting effect of glepaglutide in naive rats was determined using a two-way analysis of variance (ANOVA, dose and time), and significant findings were further analyzed with the Bonferroni post hoc test. In the INDO model, a t-test was used to compare INDO control-treated rats with vehicle control-treated rats, and INDO control-treated rats with glepaglutide-treated rats. A p value of ≤ 0.05 was considered statistically significant. Grubbs’ test was used to test for outliers in the section, and outliers were not included in the analyses. Differences in survival between different groups were compared by the Cox–Mantel log-rank test.

hGLP-2R = molecular target: T1, hGLP-2R (Homo sapiens, UniProt O95838, D470N); test: cAMP accumulation assay in HEK293 cells stably expressing hGLP-2R (AlphaScreen)
T1 sequence (O95838 1-553 D470N): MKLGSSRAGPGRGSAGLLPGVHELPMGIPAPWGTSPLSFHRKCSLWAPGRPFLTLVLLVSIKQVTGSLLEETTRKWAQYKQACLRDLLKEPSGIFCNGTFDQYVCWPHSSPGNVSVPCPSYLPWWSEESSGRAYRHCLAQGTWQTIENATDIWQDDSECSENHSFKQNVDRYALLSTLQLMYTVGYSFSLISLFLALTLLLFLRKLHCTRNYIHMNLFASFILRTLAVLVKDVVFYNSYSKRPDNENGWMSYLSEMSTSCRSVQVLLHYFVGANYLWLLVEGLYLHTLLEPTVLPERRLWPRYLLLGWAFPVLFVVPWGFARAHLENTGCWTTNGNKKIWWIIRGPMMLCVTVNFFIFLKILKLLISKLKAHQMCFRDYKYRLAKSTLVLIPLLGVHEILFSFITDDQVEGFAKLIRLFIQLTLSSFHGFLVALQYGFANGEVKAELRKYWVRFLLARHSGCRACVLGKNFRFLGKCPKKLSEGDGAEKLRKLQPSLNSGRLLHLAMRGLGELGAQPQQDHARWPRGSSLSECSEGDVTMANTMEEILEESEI
Procedure: For assaying, HEK293 cells stably expressing hGLP-2R were seeded at 30,000 cells per well in 96-well microtiter plates coated with 0.01% poly-L-lysine. […] The reaction was stopped by decanting off the compound/buffer and replacing it with 80 µl lysis/detection buffer consisting of deionized water supplemented with 0.1% w/v BSA (Sigma-Aldrich A9430), 5 mM HEPES, and 0.3% v/v Tween-20 (Sigma-Aldrich P7949).
Compound potency (EC50) and maximal effect (Emax) values were estimated by computer-aided curve fitting using a three-parameter logistic non-linear model.

naive Wistar rats = test: Intestinotrophic effect in naive rats; type: in vivo, rat; details: 80 and 400 nmol/kg SC once daily for 7 days, vs vehicle, 400 vs 80 nmol/kg p < 0.05
Procedure: Glepaglutide (80 nmol/kg or 400 nmol/kg, SC, once daily) or vehicle (SC, once daily) were administered for 14 days to naive Wistar rats to assess the intestinotrophic properties of the peptide, before initiating studies in the small intestinal inflammation model (Fig. 1A). Overall, 18 rats were included per arm, with 6 rats each sacrificed on day 0, day 7, and day 14.
as §1, with “The biopsies were immediately frozen in liquid nitrogen and stored at -80 °C for later analysis of concentrations of α-1-AGP and MPO using commercially available enzyme-linked immunosorbent assay kits (Life Diagnostics [2510–2] and Hycult Biotech [HK 210], respectively). The preparation method was validated in house.” left out
Data are presented as mean ± standard error of the mean, unless otherwise stated. The intestinal growth-promoting effect of glepaglutide in naive rats was determined using a two-way analysis of variance (ANOVA, dose and time), and significant findings were further analyzed with the Bonferroni post hoc test. […]

[4] = test system: patients with moderate to severe CD; details: 8 weeks of treatment, failed to reach statistical significance; cited from earlier work
From the text: Use of GLP-2 agonists for the treatment of IBD is not a novel concept. The ability of teduglutide to induce remission or to reduce the Crohn’s disease activity index (CDAI) score by at least 100 points after 8 weeks of treatment was examined in patients with moderate to severe CD [37]. […] We speculate that the study was underpowered and that the assessment of mucosal healing, rather than the CDAI, would have been a better endpoint to assess the effect of ...

[5] = co-treatment, body weight recovery phase (day 14), vs INDO controls
[6] = post-treatment, active inflammation phase (day 4), ELISA, vs INDO controls, p < 0.01
[7] = post-treatment, body weight recovery phase (day 16), vs INDO controls

## COc1ccc2c(c1)c(CC(=O)O)c(C)n2C(=O)c1ccc(Cl)cc1 [INDO, indomethacin]
Male Wistar rats [1]
  Mortality, INDO 15 mg/kg: exaggerated mortality
Male Wistar rats [2]
  Induction of inflammation, INDO 3 mg/kg: insufficient for inducing inflammation
  Induction of macroscopic features of inflammation, INDO 7 mg/kg: sufficient and appropriate

## HGEGTFSSELATILDALAARDFIAWLIATKITDKKKKKK-NH2 (C-terminus assumed) [Glepaglutide]
[3]; co-treatment, active inflammation phase (day 3), ELISA, vs INDO controls, p < 0.001
  Ileal MPO concentration, co-treatment: significantly decreased
[3]; co-treatment, active inflammation phase (day 3), ELISA, vs INDO controls, p < 0.05
  Ileal α-1-AGP concentration, co-treatment: significantly decreased
[3]; co-treatment, active inflammation phase (day 3), vs INDO controls, p < 0.001
  Small intestinal shortening (small intestinal length), co-treatment: reversed
[3]; co-treatment, active inflammation phase, vs INDO controls, p < 0.05
  Ileal mass, co-treatment, active inflammation phase: significantly increased
[3]; [5]
  Ileal mass, co-treatment, body weight recovery phase: significantly increased
  Jejunal mass, co-treatment, body weight recovery phase: significantly increased
[3]; co-treatment, vs INDO controls, p < 0.001, data not shown
  Acute body weight loss, co-treatment: significantly decreased
[3]; [6]
  Ileal α-1-AGP concentration, post-treatment: significantly decreased
  Jejunal α-1-AGP concentration, post-treatment: significantly decreased
[3]; post-treatment, active inflammation phase (day 4), ELISA, vs INDO controls, p < 0.05
  Jejunal MPO concentration, post-treatment: significantly decreased
[3]; post-treatment, active inflammation phase (day 4), vs INDO controls, p = 0.05
  Small intestinal shortening (small intestinal length), post-treatment: significantly reversed
[3]; [7]
  Ileal mass, post-treatment, body weight recovery phase: significantly increased
  Jejunal mass, post-treatment, body weight recovery phase: significantly increased
[3]; post-treatment, data not shown
  Acute body weight loss, post-treatment: no effect
hGLP-2R; response normalized to a saturating concentration of hGLP-2 and baseline cAMP of unstimulated receptor, mean ± SEM, n = 5
  Emax ± SEM, agonism of hGLP-2R (cAMP accumulation): 102 ± 3.7
Naive Wistar rats
  Small intestinal mass, day 7: dose-dependently increased

## HGEGTFSSELATILDALAARDFIAWLIATKITDKKKKKK-NH2 [Glepaglutide]
[3]; co- and post-treatment regimens, Cox–Mantel log-rank test
  Survival: no effect
hGLP-2R; SEM
  EC50: 0.0933 nM

## [Gly^2]GLP-2 [teduglutide]
[4]
  Effect on CDAI score: positive, dose-dependent effect
